Reference: patent publication US20230129595A1, “PARENTERAL NUTRITION SOLUTION COMPRISING A SELENIUM SOURCE” (BAXTER INTERNATIONAL INC., priority 2019, published 2023)

How the values were obtained:
[1] = Storage stability of selenium sources in a separate chamber (Example 3); settings: separated chamber, alone or together with other trace elements; after 6 months storage at 40° C./25% RH
From the text: Selenate was introduced with other trace elements into a separate chamber from macronutrients.

[2] = Selenium stability in sterilized multi trace element solutions, recovery of initial concentration (Example 4, FIGS. 1-3); settings: for Selenium concentration during storage: FIGS. 1-3
From the text: FIGS. 1-3: The recovery of the initial concentration of the different trace elements in percent (%) is indicated on the Y-axis of the Figures. The analyzed timepoints are is indicated on the X-axis. The timepoint −0.5 corresponds to the results of TE dosage on unsterilized sample at T0. Timepoint 0 corresponds to the results of TE dosage right after sterilization. Timepoint 0.5 correspond to the results of TE dosage after an accelerated stability stress cycle (i.e. three repetition of alternatively 5° C./50° C., 48 h/48 h). Timepoints 1, 3 and 6 correspond to the results of TE dosage after 1 month, 3 months and 6 months storage at 40° C./25% RH.
For the three tested solutions containing different forms of selenium, the selenium is mixed with other TE (Zn, Cu, Mn, F, I, Mo, Cr, Fe), which were introduced as chloride salts. The solutions were acidified to pH 2.2 using malic acid and underwent terminal heat sterilization prior to storage.

[3] = cited from earlier work
[4] = Pediaven, trace elements in the glucose chamber; announced July 2014; cited from earlier work
[5] = mixed with other TE, pH 2.2 with malic acid, terminal heat sterilization
[6] = mixed with other TE, pH 2.2 with malic acid, terminal heat sterilization, storage at 40° C./25% RH, selenate and selenomethionine compared with selenite

SMILES	Stability in solution [1]	Selenium concentration during storage [2, 5]	Stability of selenium after storage for three months [2, 6]	other results
O=[Se](=O)(O)O [sodium selenate]	remained stable	remained stable	better stability	
[Na+].[Na+].[O]=[Mo](=[O])([O-])[O-] [Na2MoO4, 2H2O, sodium molybdate]				Chemical form; Solubility in water [3]: <840 mg/mL
O=[Se](O)O [selenite, reference compound]			lack of stability	
C[Se]CC[C@H](N)C(=O)O [selenomethionine]		remained stable		Stability of selenium after storage for three months ([2]; pH 2.2): better stability
N[C@@H](C[SeH])C(=O)O [selenocysteine]	remained stable			
O=[Se]=O [selenium dioxide]				Presence of selenium in the finished product [4]: absent in the finished product
